Patent US11878965B2, “Inhibitors of peptidylarginine deiminases” (Gilead Sciences, Inc., priority 2020, dated 2024)

Target: human PAD4 (Homo sapiens (Human), UniProt Q9UM07)
Assay: In Vitro PAD4 BAEE Biochemical Assay
Settings: recombinant PAD4 5 nM, 2 mM calcium chloride, 3 mM BAEE substrate; geometric mean of multiple experiments
Summary of the method: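 Deimination of BAEE substrate (3 mM) measured as ammonia via o-phthalaldehyde–DTT isoindole fluorescence, 405/535 nm. Tag-free bacterially expressed human PAD4 at 5 nM with 2 mM calcium chloride, pH 7.6 MOPS buffer, 30 min compound preincubation then 2 h reaction, both at 25 °C.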

Sequence of human PAD4 (Q9UM07 2-663): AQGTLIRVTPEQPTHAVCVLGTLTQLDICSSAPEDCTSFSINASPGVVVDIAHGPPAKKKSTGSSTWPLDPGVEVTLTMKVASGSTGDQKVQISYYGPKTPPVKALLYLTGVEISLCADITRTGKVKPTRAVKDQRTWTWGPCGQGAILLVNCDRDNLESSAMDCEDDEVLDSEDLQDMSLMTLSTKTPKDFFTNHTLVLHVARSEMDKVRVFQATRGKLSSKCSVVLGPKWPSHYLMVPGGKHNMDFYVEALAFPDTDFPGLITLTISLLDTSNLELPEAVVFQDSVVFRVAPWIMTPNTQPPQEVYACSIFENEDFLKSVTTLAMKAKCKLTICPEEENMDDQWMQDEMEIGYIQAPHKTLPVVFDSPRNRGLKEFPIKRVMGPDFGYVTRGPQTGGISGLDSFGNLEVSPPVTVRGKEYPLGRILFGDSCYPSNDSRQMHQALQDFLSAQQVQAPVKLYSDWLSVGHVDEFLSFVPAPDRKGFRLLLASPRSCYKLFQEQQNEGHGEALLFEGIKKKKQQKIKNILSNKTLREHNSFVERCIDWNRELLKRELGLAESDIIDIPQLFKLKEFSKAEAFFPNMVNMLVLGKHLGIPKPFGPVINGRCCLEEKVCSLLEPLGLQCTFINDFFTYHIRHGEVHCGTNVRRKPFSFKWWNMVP

| IC50 | Structure (SMILES) |
| --- | --- |
| 70.8 nM | COc1cc(C(=O)N2C[C@H](N)[C@@H]3CC[C@H]2C3)cc2nc(-c3cc4ccc([C@@H](C)NC(=O)[C@@H]5C[C@H]5F)nc4n3CC3CC3)n(C)c12 [Example 288, (1S,2R)-N-((R)-1-(2-(5-((1S,4R,5R)-4-amino-2-azabicyclo[3.2.1]octane-2-carbonyl)-7-methoxy-1-methyl-1H-benzo[d]imidazol-2-yl)-1-(cyclopropylmethyl)-1H-pyrrolo[2,3-b]pyridin-6-yl)ethyl)-2-fluorocyclopropane-1-carboxamide] |
| 174 nM | COc1cc(C(=O)N2C[C@H](N)[C@@H]3CC[C@H]2C3)cc2nc(-c3cc4ccc([C@@H](C)NC(=O)C5(C(F)(F)F)CC5)nc4n3CC3CC3)n(C)c12 [Example 289, N-((R)-1-(2-(5-((1S,4R,5R)-4-amino-2-azabicyclo[3.2.1]octane-2-carbonyl)-7-methoxy-1-methyl-1H-benzo[d]imidazol-2-yl)-1-(cyclopropylmethyl)-1H-pyrrolo[2,3-b]pyridin-6-yl)ethyl)-1-(trifluoromethyl) cyclopropane-1-carboxamide] |
| 79.2 nM | COc1cc(C(=O)N2C[C@H](N)[C@@H]3CC[C@H]2C3)cc2nc(-c3cc4ccc([C@@H](C)NC(=O)C56CC(C5)C6)nc4n3CC3CC3)n(C)c12 [Example 290, N-((R)-1-(2-(5-((1S,4R,5R)-4-amino-2-azabicyclo[3.2.1]octane-2-carbonyl)-7-methoxy-1-methyl-1H-benzo[d]imidazol-2-yl)-1-(cyclopropylmethyl)-1H-pyrrolo[2,3-b]pyridin-6-yl)ethyl)bicyclo[1.1.1] pentane-1-carboxamide] |
| 91.9 nM | COc1cc(C(=O)N2C[C@H](N)[C@@H]3CC[C@H]2C3)cc2nc(-c3cc4ccc([C@@H](C)NC(=O)C56CC(F)(C5)C6)nc4n3CC3(F)CC3)n(C)c12 [Example 291, N-((R)-1-(2-(5-((1S,4R,5R)-4-amino-2-azabicyclo[3.2.1]octane-2-carbonyl)-7-methoxy-1-methyl-1H-benzo[d]imidazol-2-yl)-1-((1-fluorocyclopropyl)methyl)-1H-pyrrolo[2,3-b]pyridin-6-yl)ethyl)-3-fluorobicyclo[1.1.1] pentane-1-carboxamide] |
| 128 nM | COc1cc(C(=O)N2C[C@H](N)[C@@H]3CC[C@H]2C3)cc2nc(-c3cc4ccc([C@@H](C)NC(=O)c5ccccc5C(F)(F)F)nc4n3CC3CC3)n(C)c12 [Example 292, N-((R)-1-(2-(5-((1S,4R,5R)-4-amino-2-azabicyclo [3.2.1]octane-2-carbonyl)-7-methoxy-1-methyl-1H-benzo [d]imidazol-2-yl)-1-(cyclopropylmethyl)-1H-pyrrolo[2,3-b]pyridin-6-yl)ethyl)-2-(trifluoromethyl) benzamide] |
| 80.7 nM | COc1cc(C(=O)N2C[C@H](N)[C@@H]3CC[C@H]2C3)cc2nc(-c3cc4ccc([C@@H](C)NC(=O)c5ccccc5Cl)nc4n3CC3CC3)n(C)c12 [Example 293, N-((R)-1-(2-(5-((1S,4R,5R)-4-amino-2-azabicyclo [3.2.1]octane-2-carbonyl)-7-methoxy-1-methyl-1H-benzo[d]imidazol-2-yl)-1-(cyclopropylmethyl)-1H-pyrrolo[2,3-b]pyridin-6-yl)ethyl)-2-chlorobenzamide] |
| 277 nM | COc1cc(C(=O)N2C[C@H](N)[C@@H]3CC[C@H]2C3)cc2nc(-c3cc4ccc([C@@H](C)NC(=O)c5ccccc5OC(F)(F)F)nc4n3CC3CC3)n(C)c12 [Example 294, N-((R)-1-(2-(5-((1S,4R,5R)-4-amino-2-azabicyclo [3.2.1]octane-2-carbonyl)-7-methoxy-1-methyl-1H-benzo[d]imidazol-2-yl)-1-(cyclopropylmethyl)-1H-pyrrolo[2,3-b]pyridin-6-yl)ethyl)-2-(trifluoromethoxy)benzamide] |
